Test results reported in patent US9067944B2, “Process for the preparation of anagrelide and analogues thereof” (SHIRE LLC, priority 2010, dated 2015).
Read-outs that look alike come from different tables or passages of the source.

Assays:
[1] = solubility of the tosylate salt; assay type: physicochemical; conditions: crystalline tosylate salt
[2] = radiolabeled base, humans; cited from earlier work
[3] = radiolabeled base, monkeys; cited from earlier work
[4] = solid form; cited from earlier work

SMILES | solubility [1] | absorption into blood plasma [2] | absorption into blood plasma [3] | aqueous solubility [4]
CC1(C)C(=O)NC2=Nc3ccc(Cl)c(Cl)c3CN21.Cc1ccc(S(=O)(=O)O)cc1 [3,3-dimethylanagrelide tosylate, 3,3-Dimethylanagrelide Tosylate] | soluble |  |  | 
O=C1CN2Cc3c(ccc(Cl)c3Cl)N=C2N1 [compound III, 6,7-dichloro-1,5-dihydroimidazo[2,1-b]quinazolin 2 (3H)-one] |  | complete absorption | complete absorption | low
